The subject of the assay is HCMV infection of ARPE19 epithelial cells. Description: Peptide blocking assay, infection of ARPE19 cells (percent GFP or IE positive cells). Format: cell-based, Human cytomegalovirus (HCMV). To be noted: peptide 1 100 μg/ml. Here is the method: (A) Different amounts of peptide 1 were preincubated with TB40E-GFP virus and the mixture applied to ARPE19. Viral DNA levels were quantified by qPCR. (B) The results in (A) are presented as the relative amount of viral DNA relative to the DMSO control. (C) TB40E-GFP virus was preincubated with peptide 1 (100 μg/ml), or DMSO, followed by infection of ARPE19 cells (MOI=2.0). Cells were imaged for GFP expression at 2 dpi (D2) and 7 dpi (D7). (D) TB40E-GFP or BADrUL131-GFP virus, both expressing PC, were preincubated with peptide 1 (100 μg/ml), or DMSO prior to infection of ARPE19 cells (MOI=2.0). Cells were fixed and imaged for GFP at 2 dpi. All data represent the mean of n=3 experiments+/−SD. (E) Culture media supernatants from (C) were harvested on the indicated dpi and assayed for infectious virus by plaque assay. Values indicate the mean percent infected cells of 3 independent experiments±SD. ****p<0.0001.
FIG. 9. […] TB40E-GFP encoding the viral PC or AD169 lacking PC were preincubated with peptide 1 (100 μg/ml) and then infected on ARPE19 epithelial cells or HEL fibroblasts (MOI=2.0). Cells were fixed, permeabilized, stained for DNA, immunostained for anti-immediate early protein (IE) and imaged. […] Values indicate the mean percentage of infected cells of n=3 experiments±SD. **p<0.01; ***p<0.001.
FIG. 11. Each of the short peptides (aa sequences listed in Table 4; 150 uM), Peptide 1 (32.6 μM), or DMSO alone was preincubated with TB40E virus, followed by infection of ARPE19 cell lines (MOI=2.0). Cells were fixed and imaged for GFP and DNA at 2 dpi. Quantitation data indicating the percent GFP positive cells.
Live cell images: Phase and GFP signal images were captured on a Zeiss microscope (Zeiss AxioObserver Z1) at 10× magnification. Fixed cell images: cells were washed with PBS (Life Technologies) and fixed with 4% formalin in PBS (Sigma). DNA was stained with Hoechst 33342 dye (Life Technologies). The fixed cells were imaged using an Image Xpress Micro (IXM, Molecular Devices) at 4× magnification. Images were analyzed with MetaXpress imaging software (Molecular Devices) to determine the total cells per well and the percentage of infected cells (GFP positive) in each well. For IE immunostaining: fixed cells were permeabilized with 0.2% Triton X-100 (Sigma) in PBS. Blocking was performed with 1% BSA (Calbiochem, 2930) in PBS with 0.3M glycine (Sigma). Cells were then incubated in antibody targeting the major IE proteins (IE, EMD Millipore, MAB8131) diluted in 1% BSA in PBS. Cells were then incubated in secondary antibody (Texas Red-conjugated goat anti-mouse IgG2A, Southern Biotech, 1080-07) in PBS containing 1% BSA.
At 2 dpi with HCMV TB40E-GFP virus at the indicated MOI, ARPE19 cells were fixed with 4% formaldehyde and nuclei stained with Hoechst 33342. ARPE19 cells were imaged on an automated IXM scanning microscope. Numbers of infected cells were determined by calculating the percent GFP positive cells using MetaXpress software.
The noted synthetic peptides (100 ug/ml each or as described) were mixed with TB40E-GFP virus (1.2×10^6 PFU) and incubated at 37° C. for 2 h by rocking. The resulting samples were then subjected to the virus binding or infection assay.

This note sets out measurements from US12268901B2, “Targeting cell tropism receptors to inhibit cytomegalovirus infection” (priority 2017, dated 2025).

As for “MDNLTKVTEFLLMEFSGIWELQVLHA (N-terminal fragment of OR14I1) [Peptide 1, synthetic peptide representing the N-terminus of OR14I1, position 1-26]”, where the note is “TB40E-GFP encoding PC or AD169 lacking PC, MOI=2.0”, the “anti-viral action versus presence of viral PC” value is on record as “dependent on the presence of the PC”. Besides, the “anti-viral action versus viral strain” value (TB40E-GFP or BADrUL131-GFP, MOI=2.0, 2 dpi) was “independent of viral strain”. The “HCMV infection of ARPE19 epithelial cells (percent IE positive cells)” value (TB40E-GFP, MOI=2.0) is recorded as “blocks HCMV infection of ARPE19 epithelial cells”.
